ChEMBL document CHEMBL1681747, “Novel second generation analogs of eribulin. Part II: Orally available and active against resistant tumors in vivo” (Bioorg Med Chem Lett, 2011)
pIC50: −log10 of the molar value. Active and inactive are the calls of the source. No cut-off for these calls is given here.

Experiments:
DLD-1 [1] = assay: Cytotoxicity against human DLD1 cells; assay type: functional, cell-based
HCT-15 = assay: Cytotoxicity against human HCT15 cells; assay type: functional, cell-based
[2] = AUC (0 to infinity) in BALB/c mouse at 5 mg/kg; assay type: ADME, organism-based; design: time infinity, dose 5 mg/kg; settings: plasma
[3] = Half life in BALB/c mouse at 5 mg/kg; assay type: ADME, organism-based; design: dose 5 mg/kg; settings: in vivo
[4] = Volume of distribution at steady state in BALB/c mouse at 5 mg/kg, iv; assay type: ADME, organism-based; design: dose 5 mg/kg, route intravenous; settings: in vivo, read-out: Vdss
[5] = Clearance in BALB/c mouse at 5 mg/kg, iv; assay type: ADME, organism-based; design: dose 5 mg/kg, route intravenous; settings: in vivo
[6] = Oral bioavailability in BALB/c mouse at 5 mg/kg; assay type: ADME, organism-based; settings: in vivo
[7] = Tmax in BALB/c mouse at 5 mg/kg; assay type: ADME, organism-based; design: dose 5 mg/kg; settings: in vivo
[8] = AUC (0 to infinity) in BALB/c mouse at 10 mg/kg; assay type: ADME, organism-based; design: time infinity, dose 10 mg/kg; settings: plasma
[9] = Half life in BALB/c mouse at 10 mg/kg; assay type: ADME, organism-based; design: dose 10 mg/kg; settings: in vivo
[10] = Volume of distribution at steady state in BALB/c mouse at 10 mg/kg, iv; assay type: ADME, organism-based; design: dose 10 mg/kg, route intravenous; settings: in vivo, read-out: Vdss
[11] = Clearance in BALB/c mouse at 10 mg/kg, iv; assay type: ADME, organism-based; design: dose 10 mg/kg, route intravenous; settings: in vivo
[12] = Oral bioavailability in BALB/c mouse at 10 mg/kg; assay type: ADME, organism-based; settings: in vivo
[13] = Tmax in BALB/c mouse at 10 mg/kg; assay type: ADME, organism-based; design: dose 10 mg/kg; settings: in vivo
DLD-1 [14] = assay: Antitumor activity against human DLD1 cells xenografted in athymic mouse assessed as tumor stasis at 1.3 to 3 mg/kg, iv administered 2 weeks after tumor implantation qd for weekly 3 days; assay type: functional, organism-based
DLD-1 [15] = assay: Antitumor activity against human DLD1 cells xenografted in iv dosed athymic mouse assessed as tumor growth inhibition administered qd for weekly 3 days; assay type: functional, organism-based
LOX = assay: Antitumor activity against human LOX cells xenografted in athymic mouse assessed as long term tumor regression at 0.95 to 3 mg/kg, po administered 6 days after tumor implantation qd for 2 weeks; assay type: functional, organism-based

| AUC(0-inf) [2] [ng·h/mL] | half-life [3] [min] | Vd [4] [L/kg] | clearance [5] [mL/min/kg] | bioavailability [6] [%] | Tmax [7] [min] | AUC(0-inf) [8] [ng·h/mL] | half-life [9] [min] | Vd [10] [L/kg] | clearance [11] [mL/min/kg] | bioavailability [12] [%] | Tmax [13] [min] | SMILES | pIC50 (DLD-1 [1]) | pIC50 (HCT-15) | Activity (DLD-1 [14]) | Activity (DLD-1 [15]) | Activity (LOX) |
| --- | --- | --- | --- | --- | --- | --- | --- | --- | --- | --- | --- | --- | --- | --- | --- | --- | --- |
| 236 | 102 | 3.64 | 47 | 13.3 | 5 |  |  |  |  |  |  | C=C1C[C@@H]2CC[C@@]34C[C@H]5O[C@H]6[C@@H](O3)[C@H]3O[C@H](CC[C@@H]3O[C@H]6[C@H]5O4)CC(=O)C[C@@H]3[C@@H](OC)[C@@H](CC(=O)CN4CCOCC4)O[C@H]3C[C@H]3O[C@@H](CC[C@@H]1O2)C[C@@H](C)C3=C | 9.15 | 9.34 |  |  |  |
|  |  |  |  |  |  | 161 | 924 | 4.95 | 19.8 | 3.2 | 5 | C=C1C[C@@H]2CC[C@@]34C[C@H]5O[C@H]6[C@@H](O3)[C@H]3O[C@H](CC[C@@H]3O[C@H]6[C@H]5O4)CC(=O)C[C@@H]3[C@@H](OC)[C@@H](C[C@H](O)CN)O[C@H]3C[C@H]3O[C@@H](CC[C@@H]1O2)C[C@@H](C)C3=C [ERIBULIN] |  |  |  |  |  |
| 1090 | 54 | 0.92 | 11.3 | 14.9 | 5 |  |  |  |  |  |  | C=C1C[C@@H]2CC[C@@]34C[C@H]5O[C@H]6[C@@H](O3)[C@H]3O[C@H](CC[C@@H]3O[C@H]6[C@H]5O4)CC(=O)C[C@@H]3[C@@H](OC)[C@@H](C[C@@H](CN4CCOCC4)OC)O[C@H]3C[C@H]3O[C@@H](CC[C@@H]1O2)C[C@@H](C)C3=C | 9.64 | 9.70 | Active | Dose-dependent effect | Active |
| 63 | 246 | 4.78 | 48.5 | 11.3 | 5 |  |  |  |  |  |  | C=C1C[C@@H]2CC[C@@]34C[C@H]5O[C@H]6[C@@H](O3)[C@H]3O[C@H](CC[C@@H]3O[C@H]6[C@H]5O4)CC(=O)C[C@@H]3[C@@H](OC)[C@@H](CCNCC(F)F)O[C@H]3C[C@H]3O[C@@H](CC[C@@H]1O2)C[C@@H](C)C3=C | 8.50 | 8.51 |  |  |  |
